Source: patent publication US20110224210A1, “NOVEL BIS-AMIDES AS ANTI-MALARIAL AGENTS” (priority 2008, published 2011)
Where two headings read alike, the source gives them in different places.

System: P. falciparum K1 (strain resistant to chloroquine and pyrimethamine), erythrocytic stages
Experiment: Plasmodium falciparum in vitro assay, [3H] hypoxanthine incorporation
Assay type: cell-based
Conditions: [3H] hypoxanthine incorporation, read-out: IC50 (nM) on K1
In short: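 K1 strain parasites grown in human red cells, 2.5% haematocrit, 0.3% parasitaemia, 37 °C, 4% CO2/3% O2; compounds in seven serial doubling dilutions.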

[1] = Plasmodium falciparum, K1, P. falciparum strain K1

SMILES	IC50 [1]	IC50 (P. falciparum strain K1)
COc1cccc(COCCN(C)C(=O)[C@H](Cc2ccccc2)N(Cc2ccc(N3CCN(C(C)=O)CC3)cc2)C(=O)C=Cc2ccc(C(F)(F)F)cc2)c1 [Example 187, (S)-N-[4-(4-Acetyl-piperazin-1-yl)-benzyl]-N-(1-{[2-(3-methoxy-benzyloxy)-ethyl]-methyl-carbamoyl}-2-phenyl-ethyl)-3-(4-trifluoromethyl-phenyl)-acrylamide, formic acid]	7 nM	
CC(=O)N1CCN(c2ccc(CN(C(=O)C=Cc3ccc(C(F)(F)F)cc3)[C@@H](Cc3ccccc3)C(=O)N(C)CCOCc3ccc(OC(F)F)cc3)cc2)CC1 [Example 188, (S)-N-[4-(4-Acetyl-piperazin-1-yl)-benzyl]-N-(1-{[2-(4-difluoromethoxy-benzyloxy)-ethyl]-methyl-carbamoyl}-2-phenyl-ethyl)-3-(4-trifluoromethyl-phenyl)-acrylamide, formic acid]	53 nM	
CC(=O)N1CCN(c2ccc(CN(C(=O)C=Cc3ccc(C(F)(F)F)cc3)[C@@H](Cc3ccccc3)C(=O)N(C)CCOCc3ccc4c(c3)nnn4C)cc2)CC1 [Example 189, (S)-N-[4-(4-Acetyl-piperazin-1-yl)-benzyl]-N-(1-{methyl-[2-(1-methyl-1H-benzotriazol-5-ylmethoxy)-ethyl]-carbamoyl}-2-phenyl-ethyl)-3-(4-trifluoromethyl-phenyl)-acrylamide, formic acid]	9 nM	
CC(=O)N1CCN(c2ccc(CN(C(=O)C=Cc3ccc(C(F)(F)F)cc3)[C@@H](Cc3ccccc3)C(=O)N(C)CCOCc3cccnc3)cc2)CC1 [Example 190, (S)-N-[4-(4-Acetyl-piperazin-1-yl)-benzyl]-N-(1-{methyl-[2-(pyridin-3-ylmethoxy)-ethyl]-carbamoyl}-2-phenyl-ethyl)-3-(4-trifluoromethyl-phenyl)-acrylamide, formic acid]	7 nM	
COc1cccc(COCCN(C)C(=O)[C@H](Cc2ccccc2)N(Cc2ccc(N3CCOCC3)cc2)C(=O)C=Cc2ccc(C(F)(F)F)cc2)c1 [Example 191, (S)-N-(1-{[2-(3-Methoxy-benzyloxy)-ethyl]-methyl-carbamoyl}-2-phenyl-ethyl)-N-(4-morpholin-4-yl-benzyl)-3-(4-trifluoromethyl-phenyl)-acrylamide, formic acid]	11 nM	
CCOCCN(C)C(=O)[C@H](Cc1ccccc1)N(Cc1ccc(N2CCOCC2)cc1)C(=O)C=Cc1ccc(C(F)(F)F)cc1 [Example 192, (S)-N-{1-[(2-Ethoxy-ethyl)-methyl-carbamoyl]-2-phenyl-ethyl}-N-(4-morpholin-4-yl-benzyl)-3-(4-trifluoromethyl-phenyl)-acrylamide]	19 nM	
CCOCCN(C)C(=O)[C@H](Cc1ccccc1)N(Cc1ccc(N2CCN(C(C)=O)CC2)cc1)C(=O)C=Cc1ccc(C(F)(F)F)cc1 [Example 193, (S)-N-[4-(4-Acetyl-piperazin-1-yl)-benzyl]-N-{1-[(2-ethoxy-ethyl)-methyl-carbamoyl]-2-phenyl-ethyl}-3-(4-trifluoromethyl-phenyl)-acrylamide]	20 nM	
CC(=O)N1CCN(c2ccc(CN(C(=O)C=Cc3ccc(C(F)(F)F)cc3)[C@@H](Cc3ccccc3)C(=O)N(C)CCOCc3ccc(C)cc3C)cc2)CC1 [Example 194, (S)-N-[4-(4-Acetyl-piperazin-1-yl)-benzyl]-N-(1-{[2-(2,4-dimethyl-benzyloxy)-ethyl]-methyl-carbamoyl}-2-phenyl-ethyl)-3-(4-trifluoromethyl-phenyl)-acrylamide]		89 nM
Cc1ccc(COCCN(C)C(=O)[C@H](Cc2ccccc2)N(Cc2ccc(N3CCOCC3)cc2)C(=O)C=Cc2ccc(C(F)(F)F)cc2)c(C)c1 [Example 195, (S)-N-(1-{[2-(2,4-Dimethyl-benzyloxy)-ethyl]-methyl-carbamoyl}-2-phenyl-ethyl)-N-(4-morpholin-4-yl-benzyl)-3-(4-trifluoromethyl-phenyl)-acrylamide]	81 nM	
COc1ccc(COCCN(C)C(=O)[C@H](Cc2ccccc2)N(Cc2ccc(N3CCOCC3)cc2)C(=O)C=Cc2ccc(C(F)(F)F)cc2)cc1F [Example 196, (S)-N-(1-{[2-(3-Fluoro-4-methoxy-benzyloxy)-ethyl]-methyl-carbamoyl}-2-phenyl-ethyl)-N-(4-morpholin-4-yl-benzyl)-3-(4-trifluoromethyl-phenyl)-acrylamide]	16 nM	
CN(CCOCc1cccc(C#N)c1)C(=O)[C@H](Cc1ccccc1)N(Cc1ccc(N2CCOCC2)cc1)C(=O)C=Cc1ccc(C(F)(F)F)cc1 [Example 197, (S)-N-(1-{[2-(3-Cyano-benzyloxy)-ethyl]-methyl-carbamoyl}-2-phenyl-ethyl)-N-(4-morpholin-4-yl-benzyl)-3-(4-trifluoromethyl-phenyl)-acrylamide]	29 nM	
CN(CCOCc1cccc(OC(F)(F)F)c1)C(=O)[C@H](Cc1ccccc1)N(Cc1ccc(N2CCOCC2)cc1)C(=O)C=Cc1ccc(C(F)(F)F)cc1 [Example 198, (S)-N-(1-{Methyl-[2-(3-trifluoromethoxy-benzyloxy)-ethyl]-carbamoyl}-2-phenyl-ethyl)-N-(4-morpholin-4-yl-benzyl)-3-(4-trifluoromethyl-phenyl)-acrylamide]	65 nM	
COc1cc(COCCN(C)C(=O)[C@H](Cc2ccccc2)N(Cc2ccc(N3CCOCC3)cc2)C(=O)C=Cc2ccc(C(F)(F)F)cc2)cc(OC)c1 [Example 199, (S)-N-(1-{[2-(3,5-Dimethoxy-benzyloxy)-ethyl]-methyl-carbamoyl}-2-phenyl-ethyl)-N-(4-morpholin-4-yl-benzyl)-3-(4-trifluoromethyl-phenyl)-acrylamide]	34 nM	
CN(CCOCc1ccc(OC(F)F)cc1)C(=O)[C@H](Cc1ccccc1)N(Cc1ccc(N2CCOCC2)cc1)C(=O)C=Cc1ccc(C(F)(F)F)cc1 [Example 201, (S)-N-(1-{[2-(4-Difluoromethoxy-benzyloxy)-ethyl]-methyl-carbamoyl}-2-phenyl-ethyl)-N-(4-morpholin-4-yl-benzyl)-3-(4-trifluoromethyl-phenyl)-acrylamide]	32 nM	
CN(CCOCc1ccc2c(c1)nnn2C)C(=O)[C@H](Cc1ccccc1)N(Cc1ccc(N2CCOCC2)cc1)C(=O)C=Cc1ccc(C(F)(F)F)cc1 [Example 202, (S)-N-(1-{Methyl-[2-(1-methyl-1H-benzotriazol-5-ylmethoxy)-ethyl]-carbamoyl}-2-phenyl-ethyl)-N-(4-morpholin-4-yl-benzyl)-3-(4-trifluoromethyl-phenyl)-acrylamide]	14 nM	
CN(CCOCc1cccnc1)C(=O)[C@H](Cc1ccccc1)N(Cc1ccc(N2CCOCC2)cc1)C(=O)C=Cc1ccc(C(F)(F)F)cc1 [Example 203, (S)-N-(1-{Methyl-[2-(pyridin-3-ylmethoxy)-ethyl]-carbamoyl}-2-phenyl-ethyl)-N-(4-morpholin-4-yl-benzyl)-3-(4-trifluoromethyl-phenyl)-acrylamide]	12 nM	
CC(=O)N1CCN(c2ccc(CN(C(=O)C=Cc3ccc(C(F)(F)F)cc3)[C@@H](Cc3ccccc3)C(=O)N(C)CCOCc3cc(C)on3)cc2)CC1 [Example 204, (S)-N-[4-(4-Acetyl-piperazin-1-yl)-benzyl]-N-(1-{methyl-[2-(5-methyl-isoxazol-3-ylmethoxy)-ethyl]-carbamoyl}-2-phenyl-ethyl)-3-(4-trifluoromethyl-phenyl)-acrylamide]	9 nM	
CC(=O)N1CCN(c2ccc(CN(C(=O)C=Cc3ccc(C(F)(F)F)cc3)[C@@H](Cc3ccccc3)C(=O)N(C)CCOCc3ccncc3)cc2)CC1 [Example 205, (S)-N-[4-(4-Acetyl-piperazin-1-yl)-benzyl]-N-(1-{methyl-[2-(pyridin-4-ylmethoxy)-ethyl]-carbamoyl}-2-phenyl-ethyl)-3-(4-trifluoromethyl-phenyl)-acrylamide]	16 nM	
CC(=O)N1CCN(c2ccc(CN(C(=O)C=Cc3ccc(C(F)(F)F)cc3)[C@@H](Cc3ccccc3)C(=O)N(C)CCOCc3ccc(C(F)(F)F)o3)cc2)CC1 [Example 206, (S)-N-[4-(4-Acetyl-piperazin-1-yl)-benzyl]-N-(1-{methyl-[2-(5-trifluoromethyl-furan-2-ylmethoxy)-ethyl]-carbamoyl}-2-phenyl-ethyl)-3-(4-trifluoromethyl-phenyl)-acrylamide]	81 nM	
CC(=O)N1CCN(c2ccc(CN(C(=O)C=Cc3ccc(C(F)(F)F)cc3)[C@@H](Cc3ccccc3)C(=O)N(C)CCOCC3CC3)cc2)CC1 [Example 207, (S)-N-[4-(4-Acetyl-piperazin-1-yl)-benzyl]-N-{1-[(2-cyclopropylmethoxy-ethyl)-methyl-carbamoyl]-2-phenyl-ethyl}-3-(4-trifluoromethyl-phenyl)-acrylamide]	40 nM	
CC(=O)N1CCN(c2ccc(CN(C(=O)C=Cc3ccc(C(F)(F)F)nc3)[C@@H](Cc3ccccc3)C(=O)N(C)CCOCc3ccncc3)cc2)CC1 [Example 208, (S)-N-[4-(4-Acetyl-piperazin-1-yl)-benzyl]-N-(1-{methyl-[2-(pyridin-4-ylmethoxy)-ethyl]-carbamoyl}-2-phenyl-ethyl)-3-(6-trifluoromethyl-pyridin-3-yl)-acrylamide]	57 nM	
CC(=O)N1CCN(c2ccc(CN(C(=O)C=Cc3ccc(C(F)(F)F)nc3)[C@@H](Cc3ccccc3)C(=O)N(C)CCOCc3cc(C)on3)cc2)CC1 [Example 209, (S)-N-[4-(4-Acetyl-piperazin-1-yl)-benzyl]-N-(1-{methyl-[2-(5-methyl-isoxazol-3-ylmethoxy)-ethyl]-carbamoyl}-2-phenyl-ethyl)-3-(6-trifluoromethyl-pyridin-3-yl)-acrylamide]	31 nM	
CC(=O)N1CCN(c2ccc(CN(C(=O)C=Cc3ccc(C(F)(F)F)cc3)[C@@H](Cc3ccccc3)C(=O)N(C)CCOCCOCc3ccccc3)cc2)CC1 [Example 210, (S)-N-[4-(4-Acetyl-piperazin-1-yl)-benzyl]-N-(1-{[2-(2-benzyloxy-ethoxy)-ethyl]-methyl-carbamoyl}-2-phenyl-ethyl)-3-(4-trifluoromethyl-phenyl)-acrylamide]	28 nM	
